Counter-ions that a name gives are not always drawn. Like-named read-outs stand apart in the source and are kept apart here.
Columns and labels:
[1] = tested on: AMPA receptors; assay: Whole cell patch clamp, AMPA-induced current in cultured chick spinal cord neurons; format: cell-based; settings: 100 μM steroid; -70 mV
Description: (§1) Cultures of dissociated spinal cord neurons were prepared as previously described (Farb, D. H., et al., J. Cell Biol., 80:651-661 (1979)). Briefly, the dissociated cells from 7-day chick embryos were plated on collagen-coated 35-mm tissue culture dishes in Eagle's minimum essential medium supplemented with 2.4 mM glutamine, 10% (v/v) heat-inactivated horse serum, 5% (v/v) chick embryo extract and antibiotics. Cultures were maintained in a humidified atmosphere of 5% CO2, 95% air at 37°. Cytarabine (1 μM) was added to the culture medium after 36 hr. of the initial plating to inhibit the proliferation of non-neuronal cells. One day later, this medium was replaced with a similar medium supplemented with 20.5 mM glucose, 19 mM KCl, and 2.5% chick embryo extract. Fresh medium was added twice weekly. Cultured neurons were used in experiments within 2-4 weeks after plating.
(§2) Experiments were carried out in 35-mm tissue culture dishes on the stage of an inverted phase contrast microscope. Whole cell currents were recorded by the whole cell variant of the patch clamp technique (Hamill, O. P., et al., Pfagers Arch. 891:85-100 (1981)). Patch electrodes had tip openings of about […] and resistances of 3-8 M.OMEGA. using an intracellular solution comprised of the following (in mM): 140 CsCl, 11 EGTA, and 10 HEPES (pH adjusted to 7.2 with CsOH). […]

[2] = tested on: NMDA receptor; assay: Whole cell patch clamp, NMDA-induced current in cultured chick spinal cord neurons; format: cell-based; settings: for inhibition of the NMDA response by extracellular steroid: 100 μM extracellular; for IC50: read-out: IC50 for inhibition of the NMDA response
Description: as §1
Experiments were carried out in 35-mm tissue culture dishes on the stage of an inverted phase contrast microscope. Whole cell currents were recorded by the whole cell variant of the patch clamp technique (Hamill, O. P., et al., Pfagers Arch. 891:85-100 (1981)). Patch electrodes had tip openings of about […] and resistances of 3-8 M.OMEGA. using an intracellular solution comprised of the following (in mM): 140 CsCl, 11 EGTA, and 10 HEPES (pH adjusted to 7.2 with CsOH). In experiments in which a high concentration of glycine was used, the intracellular solution was replaced with a low chloride (10 mM) pipette solution. This solution contained the following (in mM): 140 potassium gluconate, 10 KCl, 8 sodium gluconate, 11 EGTA, and 10 HEPES (pH adjusted to 7.2 with KOH). To prevent a marked run-down of NMDA-induced current at high NMDA concentrations, 4 mM potassium ATP was included in the intracellular solution. The bath solution contained the following (in mM): 150 NaCl, 4 KCl, 1 CaCl2, and 10 HEPES (pH adjusted to 7.2 with NaOH). No glycine was added to the solutions containing NMDA, because no additional glycine was required to obtain a robust NMDA response, and there was no effect of a maximal concentration (10 μM) of glycine on 5β3αS inhibition of the NMDA response. All experiments were performed at room temperature (23-25° C.).
Recordings were made using an Axopatch 1B patch clamp apparatus (Axon Instruments, Burlingame, Calif.). Cells with series resistances greater than 10 M.OMEGA. were rejected. After partial compensation, series resistances were between 3.5 and 6 M.OMEGA.. The holding potential was maintained at -70 mV unless otherwise noted. Currents were filtered at 1 kHz using an eight-pole Bessel filter (-3 dB) and digitized ([…]) using an on-line data acquisition system (pClamp, Axon Instruments).
Drug solutions were applied to single neurons by pressure ejection (15 psi) from seven-barrel pipettes. Seven-barrel pressure pipettes were positioned approximately […] from the neuronal soma. Under these conditions, the drug solution in the pressure pipette rapidly and effectively replaces the solution surrounding the target neurons with less than 10% dilution (Choi, D. W., et al., Nature (Lond.) 269:342-344 (1977); Chan, C. Y., et al., Life Sci., 83:2061-2069 (1983); Chan, C. Y. and Farb, D. H., J. Neurosci., 5:2365-2373 (1985)). All drugs were obtained from Sigma, with the except of AMPA hydrobromide (Research Biochemicals) and steroids (Steraloids). Stock solutions of steroids were prepared in dimethyl sulfoxide, the final concentration of which was 0.5% (v/v). To obviate the possible effects of dimethyl sulfoxide on the relevant agonist-induced currents, all other drug solutions including NMDA, kainate, AMPA and external buffer (in the pressure pipette) also contained 0.5% dimethyl sulfoxide. […]

[3] = target: T1, recombinant NMDA receptors (NR1100 and NR2A subunits) (Rattus norvegicus, UniProt P35439+Q00959); assay: Two electrode voltage-clamp of Xenopus oocytes expressing recombinant NMDA receptors; format: cell-based
T1 construct: expressed in transfected cells; host or cells: Xenopus laevis oocytes injected with in vitro transcribed mRNA
T1 sequence (Q00959 23-1464, other chains not shown): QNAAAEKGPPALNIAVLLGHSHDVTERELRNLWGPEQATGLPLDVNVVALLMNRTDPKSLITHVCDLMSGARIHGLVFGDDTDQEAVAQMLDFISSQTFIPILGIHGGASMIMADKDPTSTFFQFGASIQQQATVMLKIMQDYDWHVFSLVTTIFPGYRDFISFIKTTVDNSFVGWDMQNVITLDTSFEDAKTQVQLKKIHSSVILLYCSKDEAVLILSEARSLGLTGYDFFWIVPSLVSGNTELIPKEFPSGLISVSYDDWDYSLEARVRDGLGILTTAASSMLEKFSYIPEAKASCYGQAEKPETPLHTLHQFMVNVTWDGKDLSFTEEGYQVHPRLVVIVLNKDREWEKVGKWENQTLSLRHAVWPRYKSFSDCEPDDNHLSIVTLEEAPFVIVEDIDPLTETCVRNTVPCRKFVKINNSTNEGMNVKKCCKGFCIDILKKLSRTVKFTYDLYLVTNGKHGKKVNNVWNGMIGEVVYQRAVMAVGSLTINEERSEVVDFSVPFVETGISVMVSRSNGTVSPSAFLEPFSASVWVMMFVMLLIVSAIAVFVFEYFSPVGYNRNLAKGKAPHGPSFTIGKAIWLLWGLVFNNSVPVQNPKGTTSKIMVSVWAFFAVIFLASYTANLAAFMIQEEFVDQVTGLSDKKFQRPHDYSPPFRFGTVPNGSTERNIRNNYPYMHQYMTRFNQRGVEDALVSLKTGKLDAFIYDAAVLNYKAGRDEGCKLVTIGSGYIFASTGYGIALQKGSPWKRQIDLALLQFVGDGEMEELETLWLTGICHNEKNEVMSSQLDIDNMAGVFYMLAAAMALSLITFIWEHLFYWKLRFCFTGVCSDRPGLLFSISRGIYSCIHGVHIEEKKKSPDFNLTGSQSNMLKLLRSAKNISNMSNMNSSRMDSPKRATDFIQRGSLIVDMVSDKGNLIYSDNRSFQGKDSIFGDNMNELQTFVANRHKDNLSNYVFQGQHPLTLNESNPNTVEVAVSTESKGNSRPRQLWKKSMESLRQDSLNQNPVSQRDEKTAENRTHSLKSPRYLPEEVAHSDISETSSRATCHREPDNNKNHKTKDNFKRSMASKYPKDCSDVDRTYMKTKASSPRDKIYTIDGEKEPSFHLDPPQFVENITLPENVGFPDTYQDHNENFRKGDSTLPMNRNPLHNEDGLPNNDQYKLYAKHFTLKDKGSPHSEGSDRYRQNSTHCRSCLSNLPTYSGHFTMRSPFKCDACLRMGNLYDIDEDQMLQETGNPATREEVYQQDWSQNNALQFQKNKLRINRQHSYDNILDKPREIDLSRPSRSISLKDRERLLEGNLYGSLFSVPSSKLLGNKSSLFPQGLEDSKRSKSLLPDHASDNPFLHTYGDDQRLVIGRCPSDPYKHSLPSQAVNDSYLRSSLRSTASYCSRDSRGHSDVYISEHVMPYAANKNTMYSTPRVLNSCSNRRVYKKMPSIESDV
Description: RNA preparation. mRNA were prepared through in vitro transcription of NR1100 and NR2A cDNAs using the mMessage mMachine kit (Ambion, Tex.). NR1100 and NR2A clones were kindly provided by Dr. Zukin and Dr. Nakanishie.
Xenopus expression system. Female, oocyte positive Xenopus laevis frogs were purchased from Nasco, Inc. (WI). The frogs were kept on a 12/12 light-dark cycle and maintained on a diet of chopped calf liver every 3 days. Prior to surgery, frogs were anesthetized in a 0.15% Tricaine solution (Sigma, Mo.) for 30-45 minutes. Ovarian sections containing the follicular oocytes were removed through a lateral abdominal incision and were immediately placed in calcium-free ND96 solution (in mM):96 NaCl; 1 MgCl2; 2 KCl; 5 Hepes; 2.5 pyruvate (pH adjusted to 7.4 with NaOH). Following a 2 hr. incubation in 0.2% collagenase type II (Sigma, Mo.) at room temperature, individual defolliculated oocytes were transferred into 60×15 mm glass petri dishes containing ND96 solution (in mM): 96 NaCl; 1 MgCl2; 2 KCl; 1.8 CaCl2; 5 Hepes; 2.5 pyruvate (pH adjusted to 7.4 with NaOH). The isolated oocytes were maintained in an incubator at 18° C. On the following date, batches of 20-40 selected oocytes (Dumont stage V and VI) were injected with 50 nl of prepared RNA solution (0.5 ng of NR1 and 12 ng of NR2A mRNAs per oocyte) using an electronic microinjector (Drummond, Pa.). The injected oocytes were used for electrophysiological experiments following 4-10 day incubation at 18° C.
Electrical recording and drug application. The ion current recordings were obtained in two electrodes voltage-clamp mode using an Axoclamp-2A amplifier (Axon Instruments, Inc., CA). The microelectrodes were fabricated with a programmed puller (Sutter Instrument Co., CA) from glass capillaries (Dagan, Minn.) and filled with 3M KCl solution. The resistance of filled microelectrodes was in the range of 2.5-3.5 M.OMEGA.. The oocytes were clamped at a holding potential of -70 mV. The membrane current was filtered at 500 Hz and sampled at 100 Hz frequency. The drugs were applied using a gravity driven external perfusion system. The data acquisition and external perfusion control were done using SuperScopeII software package (GW Instruments, MA). All experiments were performed at room temperature of 22-24° C.
The degree of modulation of the amino acid response by steroids, the percent change, was defined at (I'/I-1)×100%, where I and I' are respectively the agonist-induced currents in the absence and presence of steroid. Throughout, results are expressed as mean±SEM; statistical comparison of groups was carried out using Student's t test.

[4] = tested on: kainate receptors; assay: Whole cell patch clamp, kainate-induced current in cultured chick spinal cord neurons; format: cell-based; settings: 100 μM steroid; -70 mV
Description: as §1, §2

[5] = tested on: glutamate receptor-mediated spontaneous EPSCs in rat hippocampal neurons; assay: Spontaneous excitatory postsynaptic currents (EPSCs), whole-cell recording in cultured hippocampal neurons; format: cell-based
Description: Primary cultures of hippocampal neurons were prepared from embryonic day 18 rats. Cultured neurons were used in experiments 2-3 weeks after plating.
Spontaneous excitatory postsynaptic currents were recorded by the whole-cell variant of the patch clamp technique. The pipet solution usually contained (in mM) KCl 10, EGTA 11, sodium gluconate 3, potassium gluconate 140 and HEPES 10, adjusted to pH 7.2 with KOH. The bath solution contained (in mM) NaCl 150, KCl 4, CaCl2 1, and HEPES 10, adjusted to pH 7.2 with NaOH. Because NMDA-induced currents are subject to voltage-dependent block by extracellular Mg^2+, no magnesium salts were added to the bath solution. All records were made with the cell membrane potential clamped at -70 mV, which is very close to the Cl- equilibrium potential. Therefore, IPSCs are not expected to be observed and spontaneous activity should consist of EPSCs. The complete blockage of spontaneous activity by the co-application of the NMDA receptor antagonist APV and the non-NMDA receptor antagonist DNQX argues that the observed spontaneous activity is glutamate receptor-mediated.
Drug solutions were applied to single neurons by pressure ejection (15 psi) from 7-barrel pipets (tip opening ~3-5 μm) positioned ~50 μm from the neuronal soma. In all experiments, neurons received a 40s application of either steroid or steroid plus antagonist(s), followed by 10-20s pulse of external buffer solution.

[6] = tested on: mice; assay: Behavioral observational assessment after i.p. steroid; format: in vivo; settings: 25 mg/kg i.p., 30 min. after injection
Description: To test for behavioral effects, PS, 5β3αS, 5β3αHS, βE2 (17)HS, or βE2 (3)HS (7 mg/ml in DMSO) was administered to mice i.p. at 25 mg/kg (5 animals per drug group). Behavioral assessments were made 30 min. after injection using a comprehensive observational assessment of motor-affective responses, sensory-motor responses, posture, muscle tone, equilibration, CNS excitation, and autonomic function (Irwin, R. P., et al., NeuroSci. Lett., 141:30-44 (1968)). […] The latency to loss of righting reflex was 2.5±0.5 min., and the latency to regain the righting reflex was 83±11 min. The rapidity of onset argues that 5β3αHS readily crosses the blood brain barrier.

[7] = tested on: NMDA-induced seizure and death in mice; assay: NMDA-induced seizure and death (100 mg/kg NMDA challenge); format: in vivo; settings: steroid 25 mg/kg i.p., DMSO 50%
Description: 5β3αHS (25 mg/kg, i.p.) protects mice from NMDA-induced death. None of the steroids tested altered the latency to NMDA-induced seizure. However, 100% of the animals that received 5β3αHS survived the 100 mg/kg NMDA challenge compared to 50% for DMSO, 75% for 5β3αS and E2 (3)HS, and 50% for E2 (17)HS.

[8] = tested on: NMDA-induced convulsion and mortality in mice; assay: NMDA-induced convulsion test (200 mg/kg NMDA); format: in vivo; settings: mice, i.v. administration, FIG. 8
Description: Male CD-1 mice (Charles River Laboratories, Wilmington, Mass.) weighing 20-25 g were used for the NMDA-induced convulsion test. Mice were injected intraperitoneally with the test compound dissolved in DMSO or with vehicle. NMDA (200 mg/kg, i.p.) was injected either 2 minutes after intravenous injection of test compound or 20 minutes after intraperitoneal injection of test compound.

[9] = 200 μM steroid in the absence of PS
[10] = 200 μM steroid in the presence of 200 μM PS

CC(=O)[C@H]1CC[C@H]2[C@@H]3CC[C@@H]4C[C@@H](OS(=O)(=O)O)CC[C@]4(C)[C@H]3CC[C@]12C [5β3βS, 3β-hydroxy-5β-pregnan-20-one sulfate]
inhibition of the 25 μM AMPA-induced current [1]: 43%
inhibition of the NMDA response by extracellular steroid ([2]; in the absence of intracellular 5β3βS): 48±4%
inhibition of the NMDA response by extracellular steroid ([2]; in the presence of intracellular 5β3βS): 44±4%
inhibition of the response to 30 μM NMDA ([2]; 100 μM steroid applied with NMDA, holding potential -70 mV): 59%
inhibition of the 30 μM NMDA response with saturating glycine ([2]; 100 μM steroid, 10 μM glycine): did not significantly differ from that measured without added glycine
average inhibition of the NMDA response ([2]; 100 μM steroid, CsCl-containing intracellular solution, 2 cells): 49±5.0%
inhibition of the NMDA response ([2]; 100 μM steroid, in the presence of 100 μM spermine): 50±5%
inhibition of the peak NMDA response [2, 9]: 59±3%
effect of intracellular steroid on NMDA-induced currents ([2]; 200 μM steroid in the intracellular buffer): does not inhibit the NMDA-induced currents
inhibition of the peak NMDA response [2, 10]: 50±4%
inhibition of the NMDA response ([2]; after NEM treatment): 53±5%
inhibition of the NMDA response ([2]; in the presence of arachidonic acid): 49±5%
IC50 ([2]; in the absence of PS): 143 µM
IC50 ([2]; in the presence of 200 μM PS): 120 µM
direct response to steroid applied alone ([2]; steroid alone at greater than or equal to 100 μM, K+ current, not seen with CsCl intracellular solution): often induced a small outward current
inhibition of a near maximal NMDA response (200 μM) ([3]; 200 μM steroid): 54±8%
inhibition of the peak NMDA response [3, 9]: 46±8%
inhibition of the peak NMDA response [3, 10]: 54±5%
IC50 ([3]; IC50, in the absence of PS): 151 µM
IC50 ([3]; IC50, in the presence of 200 μM PS): 124 µM
inhibition of the 50 μM kainate-induced current [4]: 33%

CC(=O)[C@H]1CC[C@H]2[C@@H]3CC=C4C[C@@H](OS(=O)(=O)O)CC[C@]4(C)[C@H]3C(=O)C[C@]12C [11-keto PS]
activation at 100 µM ([5]; Rattus norvegicus, Hippocampal neuron, 100 μM steroid, read-out: percentage potentiation of EPSCs): 19 ± 15%
effect on spontaneous EPSCs ([5]; cultures of rat hippocampal neurons): has no effect on EPSCs

C[C@]12CC[C@@H]3c4ccc(OC(=O)CCC(=O)O)cc4CC[C@H]3[C@@H]1CC[C@@H]2O [17βE(3)HS, 17β-estradiol-3-hemisuccinate]
behavioral assessment [6]: very minor behavioral impairment
animals that survived the 100 mg/kg NMDA challenge [7]: 75%
seizures and mortality induced by NMDA [8]: effective in blocking seizures and mortality

C[C@]12CC[C@@H]3c4ccc(O)cc4CC[C@H]3[C@@H]1CC[C@@H]2OC(=O)CCC(=O)O [17βE(17)HS, 17β-estradiol-17-hemisuccinate]
behavioral assessment [6]: very minor behavioral impairment
animals that survived the 100 mg/kg NMDA challenge [7]: 50%
seizures and mortality induced by NMDA [8]: effective in blocking seizures and mortality

Reference: patent publication US6083941A, “Inhibition of NMDA receptor activity by pregnenolone sulfate derivatives” (Trustees of Boston University, priority 1998, dated 2000)
